In patent US11236055B2 (Venenum Biodesign, LLC, priority 2016, dated 2022):
pEC50: −log10 of the molar value.

Tests used:
[1] = target: T1, human TGR5 receptor (Homo sapiens, UniProt Q8TDU6); experiment: Human TGR5 cAMP production assay; assay type: cell-based; conditions: human TGR5, luminescent cAMP assay; coded A-D; read-out: Human TGR5 Lum. cAMP Activity (EC50)
T1 construct: host or cells: CHO-K1 (hTGR5-CHO cells)
T1 sequence (Q8TDU6 1-330): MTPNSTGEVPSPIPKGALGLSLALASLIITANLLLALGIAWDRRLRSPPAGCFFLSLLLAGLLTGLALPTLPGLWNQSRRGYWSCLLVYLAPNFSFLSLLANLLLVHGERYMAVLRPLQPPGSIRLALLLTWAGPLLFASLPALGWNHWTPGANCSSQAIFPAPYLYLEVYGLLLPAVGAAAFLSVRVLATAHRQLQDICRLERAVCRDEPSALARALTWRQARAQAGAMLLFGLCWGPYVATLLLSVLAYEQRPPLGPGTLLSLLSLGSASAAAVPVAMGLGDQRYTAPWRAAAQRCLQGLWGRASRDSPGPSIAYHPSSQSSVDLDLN
Outline: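 CHO-K1 cells stably expressing human TGR5, with IBMX and cAMP antibody, were exposed to half-log serially diluted compound for 1 h at room temperature. cAMP measured by enzyme-fragment complementation luminescence (XS+ kit) after overnight incubation; EC50 values reported.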

[2] = target: T2, mouse TGR5 receptor (Mus musculus, UniProt Q80SS6); experiment: Mouse TGR5 cAMP production assay (HTRF, Cisbio cAMP HiRange); assay type: cell-based; conditions: HEK293-EBNA cells overexpressing mouse TGR5, HTRF cAMP HiRange; coded A-D
T2 construct: expressed in transfected cells; host or cells: HEK293-EBNA (293 c18, ATCC CRL10852), Hygromycin B selection
T2 sequence (Q80SS6 1-329): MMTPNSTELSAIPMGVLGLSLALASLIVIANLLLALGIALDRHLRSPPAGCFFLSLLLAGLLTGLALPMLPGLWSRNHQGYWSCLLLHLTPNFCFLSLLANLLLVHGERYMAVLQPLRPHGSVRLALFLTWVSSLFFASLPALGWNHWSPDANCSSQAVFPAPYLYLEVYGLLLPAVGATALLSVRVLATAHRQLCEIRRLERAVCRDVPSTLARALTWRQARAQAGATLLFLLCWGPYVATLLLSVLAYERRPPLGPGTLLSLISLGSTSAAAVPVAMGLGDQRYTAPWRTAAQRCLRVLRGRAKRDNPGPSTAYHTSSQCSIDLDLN
Outline: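 cAMP read by HTRF competition after 1 h room-temperature compound exposure of mouse TGR5-overexpressing HEK293-EBNA cells. Cells were suspended in serum-free DMEM containing 500 μM IBMX; compounds ran as 12-point half-log dilutions in duplicate; EC50 derived.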

[3] = system: Mouse STC-1 cells; experiment: STC-1 GLP-1 assay; assay type: cell-based; conditions: GLP-1 secretion, 2 h, coded A-C, read-out: Mouse STC-1 HTRF GLP-1 Activity (EC50)
Experimental: We evaluated Compounds of the present invention for their ability to induce GLP-1 production in mouse intestinal neuroendocrine tumor cells. Mouse STC-1 cells were cultured and maintained in high glucose DMEM (Sigma #5796) supplemented with 15% horse serum, 5% Fetal Bovine Serum (FBS), 1% penicillin/streptomycin, and 2 mM L-alanine L-glutamine (GlutaMax). Two days prior to analysis of GLP-1 secretion cells were harvested using Accutase (Sigma), spun down then resuspended in high glucose DMEM media containing 2 mM L-alanine L-glutamine (GlutaMax), 10% charcoal-dextran stripped FBS, and 50 μg/mL Gentamicin, at a density of 100,000 cells/mL. 100 μL of cell suspension was added to each well of a 96-well Poly-D-Lysine coated culture plate (Sigma; cat #2382493) and was incubated at 37° C. with 5% CO2.
Compounds were initially diluted in 100% DMSO (12-point serial dilution by half logs) in a 96-well plate and then were further diluted 1:500 in Hanks' Balanced Salt Solution (HBSS) containing protease inhibitor cocktail, DPP-IV inhibitor, and 0.1% fatty acid free bovine serum albumin. On the day of the experiment cells were washed once with HBSS. After wash, 100 μL of test compound was added to each well. The plate was incubated at 37° C. with 5% CO2 for 2 h. Supernatants were collected and GLP-1 secretion was measured using the Cisbio™ Active GLP-1 HTRF Assay Kit (Cisbio). Briefly, Anti-GLP-1-d2 conjugate and Anti-GLP-1 Terbium Cryptate conjugate stock solutions were prepared as per kit instructions. The two solutions were pre-mixed and 10 μL were transferred to a 384-well low volume plate (Greiner; cat #784075). 10 μL of collected supernatants were added to wells already containing the conjugate solution. The plate was covered and incubated at room temperature overnight. The plate was read on an Envision™ plate reader (Perkin Elmer).
In Table 34, EC50 values obtained from the STC-1 GLP-1 production assay for compounds of the present invention are summarized.

[4] = Pharmacokinetic profile in mice; assay type: in vivo; conditions: mouse; fasted male Hilltop mice, 10 mg/kg oral gavage, plasma, mean of three mice
Experimental: Pharmacokinetic Profile in Mice
In this series of studies, the pharmacokinetic profile characteristics of compounds of the present invention were evaluated. The plasma concentration levels of the compounds were monitored in the blood stream (i.e., plasma) after oral gavage using Cmax, and area under the curve (AUC).
8 week old male Hilltop mice were fasted overnight. Animals were randomized into groups (n=9) by body weight. Mice were dosed with 10 mg/kg compound (in 20% PEG400/80% 0.5% carboxymethylcellulose (medium viscosity)+0.25% Tween-80) at a volume of 10 mL/kg through oral gavage. Blood was collected via orbital bleeding at 0, 0.25, 0.5, 1, 2, and 4 h post-dose, with no one mouse having more than 3 blood draws. Blood was collected in EDTA coated tubes. Samples were stored at −20° C. until analysis.
Quantitation of compound levels in plasma was accomplished by LC-MS/MS analysis. Standard curve and quality control samples were prepared in male CD-1 mouse plasma containing EDTA K^2+ as an anticoagulant at final concentrations ranging from 500 to 0.1 ng/mL. The plasma samples, calibration curve standards, and quality control samples were prepared in an identical method in a 96-well deep plate (1 mL) with a quenching solution (1:1 mixed acetonitrile:methanol containing the internal standard Reserpine @ 400 ng/mL). Low volume samples were supplemented with CD-1 mouse plasma. The plate was mixed on multi-tube votex for 1 min and centrifuged at 4000 rpm for 30 min at 4° C. (Sorvall® Super T21) before LC-MS/MS analysis. LC conditions were developed and optimized based on each compound as needed. The outlet of the column was coupled to AB Sciex 4000 QTrap Mass Spectrometer (AB Sciex, Brugg Switzerland). Detection was carried out using multiple reaction monitoring mode with positive-ion detection focusing. The pharmacokinetic parameters were derived from the plasma-time data and calculated using the standard non-compartmental method with WinNonlin (Pharsight, Mountain View, Calif.) or PK Solver (Comp. Meth. Prog. Biomed. (2010), 99, 306-314).
Values reported are the mean plasma concentration of three mice.

| SMILES | pEC50 [1] | pEC50 [2] | pEC50 [3] | Cmax [4] |
| --- | --- | --- | --- | --- |
| COc1cnccc1-c1cccc(C(C)(C)NS(=O)(=O)c2cccc(Cl)c2C)c1 [Compound 2BL] | > 7.00 | > 7.00 | 6.00 to 7.00 |  |
| COCCN(C(C)(C)c1cccc(-c2ccncc2C)c1)S(=O)(=O)c1ccccc1C(F)(F)F [Compound 13AA, N-(2-methoxyethyl)-N-(2-(3-(3-methylpyridin-4-yl)phenyl)propan-2-yl)-2-(trifluoromethyl)benzenesulfonamide] | > 7.00 | 6.00 to 7.00 | 6.00 to 7.00 |  |
| COc1cnccc1-c1cccc(C(C)(C)NS(=O)(=O)c2cccc(Cl)c2Cl)c1 [Compound 2BC] | > 7.00 | > 7.00 | 4.52 to 6.00 |  |
| CC[C@H](NS(=O)(=O)c1ccccc1C(F)(F)F)c1cccc(-c2ccncc2C)c1 [Compound 5AW, (S)-N-(1-(3-(3-methylpyridin-4-yl)phenyl)propyl)-2-(trifluoromethyl)benzenesulfonamide] | > 7.00 | > 7.00 | 4.52 to 6.00 |  |
| CCc1cnccc1-c1cccc(C2CN(S(=O)(=O)CC(=O)O)CCN2S(=O)(=O)c2cccc(Cl)c2C)c1 (stereo not drawn) [Compound 47, 2-((4-((3-Chloro-2-methylphenyl)sulfonyl)-3-(3-(3-ethylpyridin-4-yl)phenyl)piperazin-1-yl)sulfonyl)acetic acid] | > 7.00 | > 7.00 |  | 228 ng/mL |
| CCc1cnccc1-c1cccc(C2CN(CCCC(=O)O)CCN2S(=O)(=O)c2cccc(Cl)c2C)c1 (stereo not drawn) [Compound 52AA, 4-(4-((3-chloro-2-methylphenyl)sulfonyl)-3-(3-(3-ethylpyridin-4-yl)phenyl)piperazin-1-yl)butanoic acid] | > 7.00 | > 7.00 |  | 647 ng/mL |
| CCc1cnccc1-c1cccc(C2CN(C(=O)COCC(=O)O)CCN2S(=O)(=O)c2cccc(Cl)c2C)c1 (stereo not drawn) [Compound 46AB, 2-(2-(4-((3-chloro-2-methylphenyl)sulfonyl)-3-(3-(3-ethylpyridin-4-yl)phenyl)piperazin-1-yl)-2-oxoethoxy)acetic acid] | > 7.00 | > 7.00 |  | 4.5 ng/mL |
| Cc1cnccc1-c1cccc(C(C)(C)N(CCCC(=O)NCC(N)=O)S(=O)(=O)c2cccc(Cl)c2C)c1 [Compound 21AC, N-(2-amino-2-oxoethyl)-4-(3-chloro-2-methyl-N-(2-(3-(3-methylpyridin-4-yl)phenyl)propan-2-yl)phenylsulfonamido)butanamide] | > 7.00 | > 7.00 |  | 269 ng/mL |
| CNC(=O)C[C@H](NS(=O)(=O)c1ccccc1C(F)(F)F)c1cccc(-c2ccncc2C)c1 [Compound 5AZ, (S)-N-methyl-3-(3-(3-methylpyridin-4-yl)phenyl)-3-(2-(trifluoromethyl)phenylsulfonamido)propanamide] | 6.00 to 7.00 | 6.00 to 7.00 |  | 2330 ng/mL |
| Cc1cnccc1-c1cccc(C2(N(CCCC(=O)NCCS(=O)(=O)O)S(=O)(=O)c3cccc(Cl)c3C)COC2)c1 [Compound 20BN, 2-(4-(3-chloro-2-methyl-N-(3-(3-(3-methylpyridin-4-yl)phenyl)oxetan-3-yl)phenylsulfonamido)butanamido)ethanesulfonic acid] | > 7.00 | 6.00 to 7.00 |  | 478 ng/mL |
| Cc1cnccc1-c1cccc([C@H](C)N(CCCC(=O)NCCS(=O)(=O)NCC(=O)O)S(=O)(=O)c2cccc(Cl)c2Cl)c1 [Compound 36AA, (S)-2-(4-(3-chloro-N-(1-(3-(3-methylpyridin-4-yl)phenyl)ethyl)-2-chloro-phenylsulfonamido)butanamido)ethanesulfonamido acetic acid] | > 7.00 | > 7.00 |  | 7.5 ng/mL |
| Cc1cnccc1-c1cccc(C(C)(C)N(CCCNC(=O)NCCS(N)(=O)=O)S(=O)(=O)c2cccc(Cl)c2C)c1 [Compound 29AB] | > 7.00 | > 7.00 |  | 109 ng/mL |
| Cc1cnccc1-c1cccc(C(C)(C)N(CCCC(=O)NCC[N+](C)(C)C)S(=O)(=O)c2cccc(Cl)c2C)c1 [Compound 27AD, 2-(4-(3-chloro-2-methyl-N-(2-(3-(3-methylpyridin-4-yl)phenyl)propan-2-yl)phenylsulfonamido)butanamido)-N,N,N-trimethylethanaminium] | > 7.00 | 6.00 to 7.00 |  | 25.4 ng/mL |
| CCc1cnccc1-c1cccc([C@H](C)N(CCCCC(=O)NCCS(=O)(=O)O)S(=O)(=O)c2cccc(Cl)c2C)c1 [Compound 20AS, (S)-2-(5-(3-chloro-N-(1-(3-(3-ethylpyridin-4-yl)phenyl)ethyl)-2-methylphenylsulfonamido)pentanamido)ethanesulfonic acid] | > 7.00 | > 7.00 |  | 2.3 ng/mL |
| CCc1cnccc1-c1cccc(C2CN(C(=O)CCCC(=O)O)CCN2S(=O)(=O)c2cccc(Cl)c2C)c1 (stereo not drawn) [Compound 46AA, 5-(4-((3-chloro-2-methylphenyl)sulfonyl)-3-(3-(3-ethylpyridin-4-yl)phenyl)piperazin-1-yl)-5-oxopentanoic acid] | > 7.00 | > 7.00 |  | 1.6 ng/mL |
| Cc1cnccc1-c1cccc(C(C)(C)N(CCCNC(=O)CS(=O)(=O)O)S(=O)(=O)c2cccc(Cl)c2C)c1 [Compound 31AB, 2-((3-(3-chloro-2-methyl-N-(2-(3-(3-methylpyridin-4-yl)phenyl)propan-2-yl)phenylsulfonamido)propyl)amino)-2-oxoethanesulfonic acid] | > 7.00 | > 7.00 |  | 35.8 ng/mL |
